≈ marks a conversion by molar mass, not a printed value. Read-outs that look alike come from different tables or passages of the source.
Columns and labels:
[1] = Acute toxicity in mice, intraperitoneal injection; details: mouse, in vivo, ip
Description: The acute toxicity of the A80915 antibiotics in mice, when administered by intraperitoneal injection and expressed as LD50, is shown in Table V.

Trichomonas foetus = test: Anti-protozoan activity (MIC); type: cell-based; details: Tritrichomonas foetus
[2] = system: Fusobacterium symbiosum 1470; test: Susceptibility of anaerobic bacterial isolates (MIC), agar-dilution; type: cell-based
Peptococcus prevoti 1281 = test: as above; type: cell-based; details: 24 h
Trichomonas vaginalis = test: Anti-protozoan activity (MIC); type: cell-based
[3] = system: Peptostreptococcus anaerobius 1428; test: Susceptibility of anaerobic bacterial isolates (MIC), agar-dilution; type: cell-based
[4] = system: Staphylococcus aureus V41; type: cell-based
Procedure: (§1) The A80915 antibiotics inhibit the growth of bacteria which are pathogenic to animal life. […] The MIC's in Table III were determined by conventional agar-dilution assays.

[5] = system: Streptococcus pneumoniae Park1; type: cell-based
Procedure: as §1

Streptococcus sp. = type: cell-based; details: Veterinary organism Streptococcus sp.; agar-dilution
Procedure: as §1

Staphylococcus sp. = type: cell-based; details: Veterinary organism Staphylococcus sp.; agar-dilution
Procedure: as §1

[6] = system: Staphylococcus aureus X400; type: cell-based
Procedure: as §1

Escherichia coli = type: cell-based; details: Veterinary organism Escherichia coli; agar-dilution
Procedure: as §1

Salmonella typhimurium = type: cell-based; details: Salmonella enterica; Veterinary organism Salmonella typhimurium; agar-dilution
Procedure: as §1

[7] = system: Staphylococcus aureus X1.1; type: cell-based
Procedure: as §1

Pasteurella multocida = type: cell-based; details: Veterinary organism Pasteurella multocida; agar-dilution
Procedure: as §1

[8] = system: Streptococcus faecium X66; type: cell-based; details: Enterococcus faecium
Procedure: as §1

[9] = system: Staphylococcus epidermis EPI1; type: cell-based
Procedure: as §1

Pasteurella hemolytica = type: cell-based; details: Veterinary organism Pasteurella hemolytica; agar-dilution
Procedure: as §1

Mycoplasma gallisepticum = type: cell-based; details: Mycoplasmoides gallisepticum; Veterinary organism Mycoplasma gallisepticum; agar-dilution
Procedure: as §1

[10] = system: Streptococcus faecium 2041; type: cell-based; details: Enterococcus faecium
Procedure: as §1

[11] = system: Bordetella bronchiseptica; type: cell-based; details: Veterinary organism Bordetella bronchiseptica; agar-dilution
Procedure: as §1

[12] = system: Streptococcus pyogenes C203; type: cell-based
Procedure: as §1

[13] = system: Staphylococcus epidermis 222; type: cell-based
Procedure: as §1

Mycoplasma hyopneumoniae = type: cell-based; details: Mesomycoplasma hyopneumoniae; Veterinary organism Mycoplasma hyopneumoniae; agar-dilution
Procedure: as §1

Gram-negative = type: cell-based; details: agar-dilution
Procedure: as §1

[14] = system: Bacteriodes vulgatis 1211; test: Susceptibility of anaerobic bacterial isolates (MIC), agar-dilution; type: cell-based
[15] = system: Peptostreptococcus intermedius 1264; test: as above; type: cell-based; details: Peptostreptococcus, 1264, 24 h
[16] = system: Clostridium perfringens 81; test: microbe, parasite or virus in culture; type: cell-based; details: Clostridium perfringens, 81, 24 h
Bacteriodes fragilis 111 = test: Susceptibility of anaerobic bacterial isolates (MIC), agar-dilution; type: cell-based
[17] = system: Bacteriodes corrodens 1874; test: as above; type: cell-based
[18] = system: Peptococcus asaccharolyticus 1302; test: as above; type: cell-based; details: Peptoniphilus asaccharolyticus; Peptococcus asaccharolyticus 1302; agar-dilution, 24-hour incubation; read-out: MIC
[19] = system: Propionibacterium acnes 79; test: as above; type: cell-based
Candida albicans = test: Anti-fungal activity (MIC); type: cell-based
[20] = system: Bacteriodes thetaiotaomicron 1438; test: Susceptibility of anaerobic bacterial isolates (MIC), agar-dilution; type: cell-based
[21] = system: Bacteriodes melaninogenicus 2736; test: as above; type: cell-based
[22] = system: Eubacterium aerofaciens 1235; test: as above; type: cell-based
[23] = system: Bacteriodes melaninogenicus 1856/28; test: as above; type: cell-based; details: Bacteriodes melaninogenicus 1856/28; agar-dilution, 24-hour incubation; read-out: MIC
[24] = system: Clostridium difficile 2994; test: as above; type: cell-based
[25] = system: Fusobacterium necrophorum 6054A; test: as above; type: cell-based
[26] = system: Bacteriodes fragilis 1877; test: as above; type: cell-based
[27] = system: Clostridium septicum 1128; test: as above; type: cell-based; details: 24-hour incubation
Procedure: The A80915 antibiotics also are active against anaerobic bacteria. […] End points were read after 24-hour incubation.

[28] = system: Bacteriodes fragilis 1936B; test: as above; type: cell-based
[29] = Staphylococcus aureus V41, agar-dilution, read-out: MIC
[30] = Streptococcus pneumoniae Park1, agar-dilution, read-out: MIC
[31] = Staphylococcus aureus X400, agar-dilution, read-out: MIC
[32] = Staphylococcus aureus X1.1, agar-dilution, read-out: MIC
[33] = Streptococcus faecium X66, agar-dilution, read-out: MIC
[34] = Staphylococcus epidermis EPI1, agar-dilution, read-out: MIC
[35] = Streptococcus faecium 2041, agar-dilution, read-out: MIC
[36] = Streptococcus pyogenes C203, agar-dilution, read-out: MIC
[37] = Staphylococcus epidermis 222, agar-dilution, read-out: MIC

C=C1CCC(Cl)C(C)(C)C1CC12OC(C)(C)C(Cl)CC1(Cl)C(=O)c1c(cc(O)c(C)c1O)C2=O (stereo not shown) [A80915A]
LD50 [1]: 212 mg/kg | MIC (Trichomonas foetus): 50 µg/mL (≈ 94.4 µM) | MIC ([2]; Fusobacterium symbiosum 1470, agar-dilution, 24-hour incubation, read-out: MIC): > 128 µg/mL | MIC (Peptococcus prevoti 1281): 4 µg/mL (≈ 7.55 µM) | MIC (Trichomonas vaginalis): 12.5 µg/mL (≈ 23.6 µM) | MIC ([3]; Peptostreptococcus anaerobius 1428, agar-dilution, 24-hour incubation, read-out: MIC): > 128 µg/mL | MIC [4, 29]: 2 µg/mL (≈ 3.77 µM) | MIC [5, 30]: 32 µg/mL (≈ 60.4 µM) | MIC (Streptococcus sp.): 0.2 µg/mL (≈ 0.377 µM) | MIC (Staphylococcus sp.): 0.1 µg/mL (≈ 0.189 µM) | MIC [6, 31]: 2 µg/mL (≈ 3.77 µM) | MIC (Escherichia coli): > 50 µg/mL | MIC (Salmonella typhimurium): > 50 µg/mL | MIC [7, 32]: 2 µg/mL (≈ 3.77 µM) | MIC (Pasteurella multocida): 3.12 µg/mL (≈ 5.89 µM) | MIC [8, 33]: 2 µg/mL (≈ 3.77 µM) | MIC [9, 34]: 2 µg/mL (≈ 3.77 µM) | MIC (Pasteurella hemolytica): > 50 µg/mL | MIC (Mycoplasma gallisepticum): 0.78 µg/mL (≈ 1.47 µM) | MIC [10, 35]: 8 µg/mL (≈ 15.1 µM) | MIC [11]: > 50 µg/mL | MIC [12, 36]: 32 µg/mL (≈ 60.4 µM) | MIC [13, 37]: 2 µg/mL (≈ 3.77 µM) | MIC (Mycoplasma hyopneumoniae): 3.12 µg/mL (≈ 5.89 µM) | MIC (Gram-negative): > 128 µg/mL | MIC ([14]; Bacteriodes vulgatis 1211, agar-dilution, 24-hour incubation, read-out: MIC): > 128 µg/mL | MIC [15]: 4 µg/mL (≈ 7.55 µM) | MIC [16]: 4 µg/mL (≈ 7.55 µM) | MIC (Bacteriodes fragilis 111; Bacteriodes fragilis 111, agar-dilution, 24-hour incubation, read-out: MIC): > 128 µg/mL | MIC ([17]; Bacteriodes corrodens 1874, agar-dilution, 24-hour incubation, read-out: MIC): > 128 µg/mL | MIC [18]: 16 µg/mL (≈ 30.2 µM) | MIC ([19]; Cutibacterium acnes, Propionibacterium acnes 79, agar-dilution, 24-hour incubation, read-out: MIC): 32 µg/mL (≈ 60.4 µM) | MIC (Candida albicans): > 40 µg/mL | MIC ([20]; Bacteriodes thetaiotaomicron 1438, agar-dilution, 24-hour incubation, read-out: MIC): > 128 µg/mL | MIC ([21]; Bacteriodes melaninogenicus 2736, agar-dilution, 24-hour incubation, read-out: MIC): > 128 µg/mL | MIC ([22]; Collinsella aerofaciens, 1235, 24 h): 4 µg/mL (≈ 7.55 µM) | MIC [23]: 2 µg/mL (≈ 3.77 µM) | MIC ([24]; Clostridioides difficile, 2994, 24 h): 4 µg/mL (≈ 7.55 µM) | MIC ([25]; Fusobacterium necrophorum 6054A, agar-dilution, 24-hour incubation, read-out: MIC): > 128 µg/mL | MIC ([26]; Bacteriodes fragilis 1877, agar-dilution, 24-hour incubation, read-out: MIC): > 128 µg/mL | MIC [27]: 4 µg/mL (≈ 7.55 µM) | MIC ([28]; Bacteriodes fragilis 1936B, agar-dilution, 24-hour incubation, read-out: MIC): > 128 µg/mL

Cc1c(O)cc2c(c1O)C(=O)[C@@]1(Cl)C[C@@H](Cl)C(C)(C)O[C@@]1(C[C@H]1C(C)(C)[C@@H](Cl)CC[C@]1(C)O)C2=O [A80915C]
LD50 [1]: > 300 mg/kg | MIC (Trichomonas foetus): > 100 µg/mL | MIC ([2]; Fusobacterium, 1470, 24 h): > 128 µg/mL | MIC (Peptococcus prevoti 1281): 2 µg/mL (≈ 3.65 µM) | MIC (Trichomonas vaginalis): > 100 µg/mL | MIC ([3]; Peptostreptococcus anaerobius, 1428, 24 h): 4 µg/mL (≈ 7.3 µM) | MIC ([4]; Staphylococcus aureus, V41): > 128 µg/mL | MIC ([5]; Streptococcus pneumoniae, PARK1): > 128 µg/mL | MIC (Streptococcus sp.): 3.12 µg/mL (≈ 5.69 µM) | MIC (Staphylococcus sp.): 1.56 µg/mL (≈ 2.85 µM) | MIC ([6]; Staphylococcus aureus, X400): > 128 µg/mL | MIC (Escherichia coli): > 50 µg/mL | MIC (Salmonella typhimurium): > 50 µg/mL | MIC ([7]; Staphylococcus aureus, X1.1): > 128 µg/mL | MIC (Pasteurella multocida): 50 µg/mL (≈ 91.3 µM) | MIC ([8]; X66): > 128 µg/mL | MIC ([9]; Staphylococcus, EPI1): > 128 µg/mL | MIC (Pasteurella hemolytica): 50 µg/mL (≈ 91.3 µM) | MIC (Mycoplasma gallisepticum): 25 µg/mL (≈ 45.6 µM) | MIC [10]; 2041: > 128 µg/mL | MIC [11]: > 50 µg/mL | MIC ([12]; Streptococcus pyogenes, C203): > 128 µg/mL | MIC ([13]; Staphylococcus, 222): > 128 µg/mL | MIC (Mycoplasma hyopneumoniae): > 50 µg/mL | MIC (Gram-negative): > 128 µg/mL | MIC ([14]; 24 h): > 128 µg/mL | MIC [15]: 128 µg/mL (≈ 234 µM) | MIC [16]: 8 µg/mL (≈ 14.6 µM) | MIC (Bacteriodes fragilis 111; 24 h): 128 µg/mL (≈ 234 µM) | MIC ([17]; 24 h): > 128 µg/mL | MIC [18]: 2 µg/mL (≈ 3.65 µM) | MIC ([19]; Cutibacterium acnes, 79, 24 h): 4 µg/mL (≈ 7.3 µM) | MIC (Candida albicans): > 80 µg/mL | MIC ([20]; 24 h): > 128 µg/mL | MIC ([21]; 24 h): > 128 µg/mL | MIC ([22]; Collinsella aerofaciens, Eubacterium aerofaciens 1235, agar-dilution, 24-hour incubation, read-out: MIC): 8 µg/mL (≈ 14.6 µM) | MIC [23]: 64 µg/mL (≈ 117 µM) | MIC ([24]; Clostridioides difficile, Clostridium difficile 2994, agar-dilution, 24-hour incubation, read-out: MIC): 8 µg/mL (≈ 14.6 µM) | MIC ([25]; Fusobacterium necrophorum, 6054A, 24 h): > 128 µg/mL | MIC ([26]; 24 h): 4 µg/mL (≈ 7.3 µM) | MIC [27]: 8 µg/mL (≈ 14.6 µM) | MIC ([28]; 24 h): 4 µg/mL (≈ 7.3 µM)

C=C1CCC(Cl)C(C)(C)C1CC12OC(C)(C)C(Cl)C=C1C(=O)c1c(cc(O)c(C)c1O)C2=O (stereo not shown) [Compound 5]
MIC [4, 29]: 4 µg/mL (≈ 8.11 µM) | MIC [5, 30]: 4 µg/mL (≈ 8.11 µM) | MIC [6, 31]: 4 µg/mL (≈ 8.11 µM) | MIC [7, 32]: 4 µg/mL (≈ 8.11 µM) | MIC [8, 33]: 8 µg/mL (≈ 16.2 µM) | MIC [9, 34]: 4 µg/mL (≈ 8.11 µM) | MIC [10, 35]: 8 µg/mL (≈ 16.2 µM) | MIC [12, 36]: 4 µg/mL (≈ 8.11 µM) | MIC [13, 37]: 4 µg/mL (≈ 8.11 µM) | MIC (Gram-negative): > 128 µg/mL

From patent publication US4904590A, “Antibiotic A80915 and process for its production” (Eli Lilly and Company, priority 1988, dated 1990)
